Experimental data: US12084472B2 (Ardelyx, Inc., priority 2015, dated 2024)

Target: T1, human TGR5 (Homo sapiens, UniProt Q8TDU6)
T1 construct: expressed in transfected cells; host or cells: HEK293
T1 sequence (Q8TDU6 1-330): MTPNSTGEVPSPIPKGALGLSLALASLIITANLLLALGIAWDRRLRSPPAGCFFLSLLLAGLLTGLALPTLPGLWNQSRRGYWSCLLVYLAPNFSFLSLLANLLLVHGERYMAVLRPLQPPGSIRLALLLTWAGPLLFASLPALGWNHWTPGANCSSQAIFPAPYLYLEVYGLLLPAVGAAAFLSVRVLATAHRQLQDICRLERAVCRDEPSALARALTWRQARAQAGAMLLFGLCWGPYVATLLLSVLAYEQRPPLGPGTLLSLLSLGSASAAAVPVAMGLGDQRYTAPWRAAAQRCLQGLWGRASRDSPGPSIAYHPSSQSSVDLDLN
Assay: Cell-based TGR5 assay (cAMP generation, HTRF)
Conditions: HEK293 cells stably transfected with human TGR5; cAMP by HTRF; 30 minutes at 37° C.; read-out: pEC50 Human TGR5 (converted)
In short: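 First, compounds in 3-fold serial dilution were placed in HBSS with 10 mM HEPES pH 7.4 and 0.5 mM IBMX. Next, human TGR5-expressing HEK293 cells were added and incubated 30 min at 37° C. Finally, cAMP was detected by HTRF and pEC50 derived by logistic fitting.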

Row | SMILES | EC50 [nM]
1 | COCC(=O)N(CCCCc1cc(Cl)c(COC2(c3cnccc3-c3ccccc3OC3CC3)CC2)cc1Cl)C[C@H](O)[C@@H](O)[C@H](O)[C@H](O)CO [Compound I-72, N-{4-[2,5-dichloro-4-({1-[4-(2-cyclopropoxyphenyl)pyridin-3-yl]cyclopropoxy}methyl)phenyl]butyl}-2-methoxy-N-[(2S,3R,4R,5R)-2,3,4,5,6-pentahydroxyhexyl]acetamide] | < 100
2 | O=C(NC[C@H](O)[C@@H](O)[C@H](O)[C@H](O)CO)[C@H]1CC[C@H](NS(=O)(=O)c2ccc(Cl)c(COC3(c4cnccc4-c4ccccc4OC4CC4)CC3)c2)CC1 [Compound I-442, (1r,4r)-4-[4-chloro-3-({1-[4-(2-cyclopropoxyphenyl)pyridin-3-yl]cyclopropoxy}methyl)benzenesulfonamido]-N-[(2S,3R,4R,5R)-2,3,4,5,6-pentahydroxyhexyl]cyclohexane-1-carboxamide] | < 100
3 | C[C@H](O)CN(CCCCc1cc(Cl)c(COC2(c3cnccc3-c3ccccc3OC3CC3)CC2)cc1Cl)C(=O)[C@@H](O)[C@@H](O)[C@H](O)[C@@H](O)CO [Compound I-215, (2S,3S,4R,5S)-N-{4-[2,5-dichloro-4-({1-[4-(2-cyclopropoxyphenyl)pyridin-3-yl]cyclopropoxy}methyl)phenyl]butyl}-2,3,4,5,6-pentahydroxy-N-[(2S)-2-hydroxypropyl]hexanamide] | < 100
4 | O=C(NCCOCCSc1ccc(Cl)c(CNC2(c3cnccc3-c3ccccc3OC3CC3)CC2)c1)NC[C@H](O)[C@@H](O)[C@H](O)[C@H](O)CO [Compound I-626, 1-{2-[2-({4-chloro-3-[({1-[4-(2-cyclopropoxyphenyl)pyridin-3-yl]cyclopropyl}amino)methyl]phenyl}sulfanyl)ethoxy]ethyl}-3-[(2S,3R,4R,5R)-2,3,4,5,6-pentahydroxyhexyl]urea] | < 100
5 | CC(CCCN(CCN1CCNC1=O)C(=O)[C@@H](O)[C@@H](O)[C@H](O)[C@@H](O)CO)c1ccc(Cl)c(CNC2(c3cnccc3-c3ccccc3OC3CC3)CC2)c1 (stereo partly drawn) [Compound I-277, (2S,3S,4R,5S)-N-(4-{4-chloro-3-[({1-[4-(2-cyclopropoxyphenyl)pyridin-3-yl]cyclopropyl}amino)methyl]phenyl}pentyl)-2,3,4,5,6-pentahydroxy-N-[2-(2-oxoimidazolidin-1-yl)ethyl]hexanamide] | 126 to 1000
6 | COCCCN(C[C@H](O)[C@@H](O)[C@H](O)[C@H](O)CO)C(=O)CCCCc1cc(Cl)c(COC2(c3cnccc3-c3ccccc3OC3CC3)CC2)cc1Cl [Compound I-220, 5-[2,5-dichloro-4-({1-[4-(2-cyclopropoxyphenyl)pyridin-3-yl]cyclopropoxy}methyl)phenyl]-N-(3-methoxypropyl)-N-[(2S,3R,4R,5R)-2,3,4,5,6-pentahydroxyhexyl]pentanamide] | 126 to 1000
7 | CCNC(=O)[C@H](N)CCCCNS(=O)(=O)c1ccc(Cl)c(COC2(c3cnccc3-c3ccccc3OC3CC3)CC2)c1 [Compound I-481, (2R)-2-amino-6-[4-chloro-3-({1-[4-(2-cyclopropoxyphenyl)pyridin-3-yl]cyclopropoxy}methyl)benzenesulfonamido]-N-ethylhexanamide] | < 100
8 | CNC(=O)CN(C[C@H](O)[C@@H](O)[C@H](O)[C@H](O)CO)C(=O)CCCSc1ccc(Cl)c(COC2(c3cnccc3-c3ccccc3OC3CC3)CC2)c1 [Compound I-670, 4-{[4-chloro-3-({1-[4-(2-cyclopropoxyphenyl)pyridin-3-yl]cyclopropoxy}methyl)phenyl]sulfanyl}-N-[(methylcarbamoyl)methyl]-N-[(2S,3R,4R,5R)-2,3,4,5,6-pentahydroxyhexyl]butanamide] | 126 to 1000
9 | CS(=O)(=O)CCN(CCCCNS(=O)(=O)c1ccc(Cl)c(COC2(c3cnccc3-c3ccccc3OC3CC3)CC2)c1)C(=O)[C@@H](O)[C@@H](O)[C@H](O)[C@@H](O)CO [Compound I-457, (2S,3S,4R,5S)-N-{4-[4-chloro-3-({1-[4-(2-cyclopropoxyphenyl)pyridin-3-yl]cyclopropoxy}methyl)benzenesulfonamido]butyl}-2,3,4,5,6-pentahydroxy-N-(2-methanesulfonylethyl) hexanamide] | < 100
10 | CN(CCCCNC(=O)NC[C@H](O)[C@@H](O)[C@H](O)[C@H](O)CO)S(=O)(=O)c1cc(CNC2(c3cnccc3-c3ccccc3OC3CC3)CC2)c(Cl)cc1Cl [Compound I-392, 1-[4-(N-methyl[2,4-dichloro-5-[([1-[4-(2-cyclopropoxyphenyl)pyridin-3-yl]cyclopropyl]amino)methyl]benzene]sulfonamido)butyl]-3-[(2S,3R,4R,5R)-2,3,4,5,6-pentahydroxyhexyl]urea] | < 100
11 | Cc1ccccc1-c1ccncc1C1(OCc2cc(Cl)ccc2Cl)CC1 [Compound I-773, 3-(1-((2,5-dichlorobenzyl)oxy)cyclopropyl)-4-(o-tolyl)pyridine] | 126 to 1000
12 | CC(C)(C)OCc1ccccc1-c1ccncc1C1(NCc2cc(Cl)ccc2Cl)CC1 [Compound I-13, 1-(4-{2-[(tert-butoxy)methyl]phenyl}pyridin-3-yl)-N-[(2,5-dichlorophenyl)methyl]cyclopropan-1-amine] | 126 to 1000
13 | CCN(CCOCCNC(=O)N[C@@H](CO)[C@@H](O)[C@H](O)[C@H](O)CO)S(=O)(=O)c1ccc(Cl)c(COC2(c3cnccc3-c3ccccc3OC3CC3)CC2)c1 [Compound I-415, 1-(2-{2-[N-ethyl4-chloro-3-({1-[4-(2-cyclopropoxyphenyl)pyridin-3-yl]cyclopropoxy}methyl)benzenesulfonamido]ethoxy}ethyl)-3-[(2S,3R,4S,5R)-1,3,4,5,6-pentahydroxyhexan-2-yl]urea] | < 100

Further lines, results first:

Row | EC50 [nM] | SMILES
14 | < 100 | CC(CCCc1cc(Cl)c(COC2(c3cnccc3-c3ccccc3OC3CC3)CC2)cc1Cl)C(=O)NC[C@H](O)[C@@H](O)[C@H](O)[C@H](O)CO (stereo partly drawn) [Compound I-139, 5-[2,5-dichloro-4-({1-[4-(2-cyclopropoxyphenyl)pyridin-3-yl]cyclopropoxy}methyl)phenyl]-2-methyl-N-[(2S,3R,4R,5R)-2,3,4,5,6-pentahydroxyhexyl]pentanamide]
15 | < 100 | Cc1cc(COC2(c3cnccc3-c3ccccc3OC3CC3)CC2)c(Cl)cc1CCCCNC(=O)[C@@H](O)[C@@H](O)[C@H](O)[C@@H](O)CO (stereo in doubt) [Compound I-172, (2S,3S,4R,5S)-N-{4-[5-chloro-4-({1-[4-(2-cyclopropoxyphenyl)pyridin-3-yl]cyclopropoxy)methyl)-2-methylphenyl]butyl}-2,3,4,5,6-pentahydroxyhexanamide]
16 | < 100 | CSc1ccc(C)c(CNC2(c3cnccc3-c3ccccc3OC3CC3)CC2)n1 [Compound I-25, 1-[4-(2-cyclopropoxyphenyl)pyridin-3-yl]-N-{[3-methyl-6-(methylsulfanyl)pyridin-2-yl]methyl}cyclopropan-1-amine]
17 | < 100 | Cc1ccc(C(C)CCCC(=O)N(CCCS(C)(=O)=O)C[C@H](O)[C@@H](O)[C@H](O)[C@H](O)CO)cc1CNC1(c2cnccc2-c2ccccc2OC2CC2)CC1 (stereo partly drawn) [Compound I-370, 5-{3-[({1-[4-(2-cyclopropoxyphenyl)pyridin-3-yl]cyclopropyl}amino)methyl]-4-methylphenyl}-N-(3-methanesulfonylpropyl)-N-[(2S,3R,4R,5R)-2,3,4,5,6-pentahydroxyhexyl]hexanamide]
18 | 126 to 1000 | O=C(NCCCCCOc1ccc(Cl)c(COC2(c3cnccc3-c3ccccc3OC3CC3)CC2)c1)NC[C@H](O)[C@@H](O)[C@H](O)[C@H](O)CO [Compound I-726, 1-(5-(4-chloro-3-((1-(4-(2-cyclopropoxyphenyl)pyridin-3-yl)cyclopropoxy)methyl)phenoxy)pentyl)-3-((2S,3R,4R,5R)-2,3,4,5,6-pentahydroxyhexyl)urea]
19 | < 100 | NC(=O)CN(CCCCCSc1ccc(Cl)c(CNC2(c3cnccc3-c3ccccc3OC3CC3)CC2)c1)C(=O)[C@@H](O)[C@@H](O)[C@H](O)[C@@H](O)CO [Compound I-610, (2S,3S,4R,5S)-N-(carbamoylmethyl)-N-[5-({4-chloro-3-[({1-[4-(2-cyclopropoxyphenyl)pyridin-3-yl]cyclopropyl}amino)methyl]phenyl}sulfanyl)pentyl]-2,3,4,5,6-pentahydroxyhexanamide]
20 | < 100 | C[C@@H](O)CN(CCCCc1cc(Cl)c(COC2(c3cnccc3-c3ccccc3OC3CC3)CC2)cc1Cl)C(=O)[C@@H](O)[C@@H](O)[C@H](O)[C@@H](O)CO [Compound I-214, (2S,3S,4R,5S)-N-{4-[2,5-dichloro-4-({1-[4-(2-cyclopropoxyphenyl)pyridin-3-yl]cyclopropoxy}methyl)phenyl]butyl}-2,3,4,5,6-pentahydroxy-N-[(2R)-2-hydroxypropyl]hexanamide]
21 | 12600 to 50100 | Cc1cnc(SCCCC(=O)NC[C@H](O)[C@@H](O)[C@H](O)[C@H](O)CO)nc1CNC1(c2cnccc2-c2ccccc2OC2CC2)CC1 [Compound I-655, 4-({4-[({1-[4-(2-cyclopropoxyphenyl)pyridin-3-yl]cyclopropyl}amino)methyl]-5-methylpyrimidin-2-yl}sulfanyl)-N-[(2S,3R,4R,5R)-2,3,4,5,6-pentahydroxyhexyl]butanamide]
22 | < 100 | CN(CCCCNC(=O)[C@@H](O)[C@@H](O)[C@H](O)[C@@H](O)CO)S(=O)(=O)c1ccc(Cl)c(COC2(c3cnccc3-c3ccccc3OC3CC3)CC2)c1 [Compound I-458, (2S,3S,4R,5S)-2,3,4,5,6-pentahydroxy-N-{4-[N-methyl4-chloro-3-({1-[4-(2-cyclopropoxyphenyl)pyridin-3-yl]cyclopropoxy}methyl)benzenesulfonamido]butyl}hexanamide]
